test system: S. typhi GFP reporter counter-screen, fluorescence, 4 h; assay: inhibitors in S. typhi counter-screen strain, dose response, counter-screen for PhoP regulon inhibitor project, fluorescence, 4 h (AID 2384)

Compound | IC50
Cc1ccc(OCC(=O)N/N=C\c2c(C)[nH]n(-c3ccccc3)c2=O)c([N+](=O)[O-])c1 | 42.6 µM
COc1cc2c3cc1Oc1cc(ccc1O)C[C@@H]1c4c(cc(OC)c(O)c4Oc4ccc(cc4)C[C@H]3N(C)CC2)CCN1C | 93.4 µM
OC(CNCCc1ccc(Cl)cc1Cl)COc1ccccc1 (stereo not given) | 37.3 µM
CCCCCOc1ccc(CSC2=NCCN2)cc1[N+](=O)[O-] | 32 µM
c1ccc(Nc2ccnc(Nc3ccccc3)n2)cc1 | 38.9 µM
O=[N+]([O-])c1cc(Cl)cc(/C=N/NC(=S)Nc2ccc(S(=O)(=O)N3CCOCC3)cc2)c1O | 51 µM
Cc1cc(C)c2c(N)c3ccccc3nc2n1 | 84.7 µM
CCCCc1ccc(NC2=NCCCS2)cc1 | 80.5 µM
Cc1[nH]cnc1C(=O)N/N=C/c1ccc([N+](=O)[O-])s1 | 37.2 µM
C#CCOCCOCCOCCNc1nc(N2CCN(C(=O)CCCCCCCCCCNC(=O)Cn3cc(CCCCCN)nn3)CC2)nc(N2CCN(C(=O)CCCCCCCCCCNC(=O)[C@H]([C@@H](C)CC)n3cc(CCCCCN)nn3)CC2)n1 | 38.8 µM
CN1CCN(CCCN2c3ccccc3Sc3ccc(C(F)(F)F)cc32)CC1 | 36.6 µM
O=C(CSc1ccccn1)Nc1nonc1[N+](=O)[O-] | 116 µM
CC1CC(C)CN(CCOc2ccc(Cl)cc2Cl)C1 (stereo not given) | 88.2 µM
O=C1c2c(O)ccc(O)c2C(=O)c2c(NCCNCCO)ccc(NCCNCCO)c21 | 86.5 µM
O=C(Cc1cccs1)N/N=C\c1ccc([N+](=O)[O-])s1 | 50.9 µM
C#CCOCCOCCOCCNc1nc(N2CCN(C(=O)C(Cc3cc4ccccc4[nH]3)n3cc(C(N)C(C)CC)nn3)CC2)nc(N2CCN(C(=O)C(Cc3cc4ccccc4[nH]3)n3cc(C(N)C(C)CC)nn3)CC2)n1 (stereo not given) | 134 µM
CS(=O)(=O)c1ccc([C@@H](O)[C@@H](CO)NC(=O)C(Cl)Cl)cc1 | 18 µM
C[C@@H](NC(=O)/C(C#N)=C/c1ccc(O)c(O)c1)c1ccccc1 | 84.3 µM
NC1=NC[C@H](c2ccccc2)N1CCc1cc(C(F)(F)F)cc(C(F)(F)F)c1 | 31.1 µM
Oc1c(I)cc(Cl)c2cccnc12 | 5.62 µM
Cc1ccc(OCC(O)Cn2c(=N)n(CCN3CCCCC3)c3ccccc32)cc1 (stereo not given) | 13.4 µM
CN1/C(=C\C=C\C2=[N+](C)c3ccc4ccccc4c3C2(C)C)C(C)(C)c2ccccc21 | 8.85 µM
O=C(Nc1nnc(-c2ccco2)o1)c1cccc(Cl)c1 | 43.1 µM
COc1cccc(F)c1C(C[N+](=O)[O-])c1c(N)n(C)c(=O)n(C)c1=O (stereo not given) | 89.2 µM
CCCCNC1=CC(=O)C(=O)c2ccccc21 | 72.8 µM
Fc1ccc(Nc2ccnc(Nc3ccc(F)cc3)n2)cc1 | 24.8 µM
O=C(N/N=C/c1cc([N+](=O)[O-])ccc1O)C1CC1 | 20.2 µM
Cc1ccc(C(=O)Sc2cccccc2=O)cc1 | 6.31 µM

Compound | IC50
CNCCCC1Sc2ccccc2Oc2ccccc21 (stereo not given) | 46.4 µM
CN1CCN(c2nc(Nc3ccc(F)cc3)nc(Nc3ccc(F)cc3)n2)CC1 | 86.7 µM
Cc1ccc(C(=O)NCCN2C3=NC[C@@H](Cc4ccccc4)N3C[C@H]2Cc2ccc(O)cc2)cc1Br | 35.8 µM
Cc1ccc(NC(=O)COc2ccccc2CNC(C)(C)CC(C)(C)C)cc1 | 82.5 µM
CCCCOc1ccc(CSC(=N)N)cc1Cl | 19.1 µM
c1ccc(Sc2cccc3ccccc23)c(CNC2=NCCN2)c1 | 40.1 µM
CCCCCCCCCCC[N+](C)(C)CC/C=C1/c2ccccc2Sc2ccc(Cl)cc21 | 53.6 µM
CN(C)C1C(=O)C(C(N)=O)=C(O)C2(O)C(=O)C3=C(O)c4c(O)cccc4C(C)(O)C3C(O)C12 (stereo not given) | 0.83 µM
O=C(C[n+]1cc(Br)cc2ccccc21)c1ccc(Cl)cc1 | 32.7 µM
CN1CCC(OC(=O)c2ccc(Br)cc2)CC1 | 18.2 µM
COc1ccc(/C=C/c2cc(-c3ccc(C)cc3)o[n+]2C)cc1 | 42.7 µM
O=C(Nc1nnc(-c2cccs2)o1)c1cccc(F)c1 | 28.6 µM
CCCOc1ccc(C(=O)NNC(=S)NC(=O)c2ccco2)cc1 | 36.8 µM
O=C(N/N=C/c1ccccc1O)C1SCCCS1 | 72.9 µM
O=C(N/N=C/c1ccccn1)c1cccs1 | 65.5 µM
CCC(C)N1CCC2(CC1)N=c1c(c3c4c5c(C)c(O)c3c(O)c1=NC(=O)C(C)=CC=C[C@H](C)[C@H](O)[C@@H](C)[C@@H](O)[C@@H](C)[C@H](OC(C)=O)[C@H](C)[C@@H](OC)C=CO[C@@](C)(O5)C4=O)N2 (stereo not given in full) | 5.31 µM
CN(C)CCCNC(=S)NCC(c1ccc(Cl)cc1Cl)c1c[nH]c2ccccc12 (stereo not given) | 26.4 µM
Oc1ccc(COCc2ccccc2)c2cccnc12 | 29.2 µM
NC1=NC[C@H](Cc2ccc(O)cc2)N1CCc1cccc2ccccc12 | 36.5 µM
CSc1nc2ccc(Cl)cc2[nH]1 | 73.6 µM
CCN(CC(O)COc1ccc(OCC(O)CN(CC)C2CCCCC2)cc1)C1CCCCC1 (stereo not given) | 52.4 µM
Cc1ccc2nc(N(CCCN(C)C)C(=O)c3sc4ccccc4c3Cl)sc2c1 | 24.3 µM
CCc1ccc(-c2nn(-c3ccccc3)cc2CSC(=N)N)cc1 | 19.3 µM
Cc1cc(N2CCC(C)CC2)nc2cccc(O)c12 | 80.2 µM
O=c1c(O)cccc2cc(O)c(O)c(O)c12 | 18.5 µM
CNCCCN1c2ccccc2CCc2ccccc21 | 77.6 µM
Oc1cccc2ccc(Nc3ccccn3)nc12 | 7.38 µM

— PubChem BioAssay AID2384 (Southern Research Specialized Biocontainment Screening …, 2010)
